{
  "source": "patent US11911393B2",
  "about": "“Non-catalytic substrate-selective p38alpha-specific MAPK inhibitors with endothelial-stabilizing and anti-inflammatory activity, and methods of use thereof” (University of Maryland, Baltimore, priority 2016, dated 2024)",
  "key": {"p38β": {"molecular_target": "T1, p38β (Homo sapiens, UniProt Q15759)", "T1 construct": "HA (N); made in house; host or cells: E. coli BL21", "T1 sequence (Q15759 whole entry)": "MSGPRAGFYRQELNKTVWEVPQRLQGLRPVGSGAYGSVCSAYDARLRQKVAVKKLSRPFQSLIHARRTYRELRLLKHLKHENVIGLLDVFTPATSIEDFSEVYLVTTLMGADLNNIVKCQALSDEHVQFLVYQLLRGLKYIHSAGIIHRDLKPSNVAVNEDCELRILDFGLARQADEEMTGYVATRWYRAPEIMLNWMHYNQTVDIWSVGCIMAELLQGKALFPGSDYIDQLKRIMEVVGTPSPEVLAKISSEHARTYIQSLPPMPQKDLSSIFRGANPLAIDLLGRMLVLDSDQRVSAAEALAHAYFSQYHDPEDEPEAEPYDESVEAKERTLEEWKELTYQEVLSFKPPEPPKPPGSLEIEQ", "experiment": "DSF, binding to p38β", "conditions": "DSF melting temperature, concentration series"}, "[1]": {"tested_on": "LPS-induced cytokine expression in PMA-differentiated THP1 cells", "experiment": "LPS-induced cytokine expression, PCR-based cytokine array", "type": "cell-based, human", "conditions": "25 μM SB203580 or 10, 25, or 100 μM UM101"}, "[2]": {"tested_on": "p38-dependent phosphorylation of MK2 and Stat-1 in HeLa cells", "experiment": "Inhibition of substrate phosphorylation (immunoblot)", "type": "cell-based, human", "conditions": "10 μM SB203580 or 50 μM UM101 for 30 min", "source_text": "Cell extracts prepared in RIPA buffer containing protease and phosphatase inhibitors were resolved by SDS-PAGE, transferred to PVDF membrane, blocked with 5% nonfat dry milk, probed with primary antibodies against phosphorylated MK2 and Stat-1, and total p38α as a loading control. Bands were detected using secondary antibodies conjugated to infrared fluorophores and infrared fluorescence imaging (Odyssey; LICOR)."}, "[3]": {"tested_on": "LPS/hyperthermia-induced ALI in CD1 mice", "experiment": "Mouse i.t. LPS/FRH-induced acute lung injury model", "conditions": "single i.p. injection of 100-1000 μg UM101, 1000 μg UM60 or 1000 μg SB203580, 30 min before i.t. 50 μg LPS and hyperthermia"}},
  "note": "Entries after “also recorded” stand apart in the source; their conditions may differ.",
  "data": [
    {"smiles": "C[S+]([O-])c1ccc(-c2nc(-c3ccncc3)c(-c3ccc(F)cc3)[nH]2)cc1", "note": "(centres unmarked) [SB203580, reference compound]", "values": [
      {"measurement": "stabilization of p38β in DSF (binding), in words", "setting": "p38β", "value": "stabilized both p38α and p38β"},
      {"measurement": "LPS-stimulated genes of the array (16) whose expression was inhibited, in words", "setting": "[1]", "value": "inhibited expression of seven"},
      {"measurement": "anisomycin-stimulated phosphorylation of MK2, in words", "setting": "[2]", "value": "failed to completely block MK2 phosphorylation; also recorded: reduced"},
      {"measurement": "anisomycin-stimulated phosphorylation of Stat-1, in words", "setting": "[2]", "value": "reduced"},
      {"measurement": "mice that died within 24 h", "setting": "[3]", "value": "one of six"}
    ]}
  ]
}
